# In article PMC7914897, “Cytotoxic Potential of a-Azepano- and 3-Amino-3,4-SeCo-Triterpenoids” (International Journal of Molecular Sciences, 2021):
# Experiments:
# Prostate cancer subpanel = assay: NCI-60 screen, subpanel; conditions: Homo sapiens; for IC (TGI): 48 h, read-out: TGI MG_MID; for GI50: read-out: GI50 MG_MID
# EKVX (NSC lung cancer) = assay: NCI-60 screen (SRB, 48 h); conditions: Homo sapiens
# MDA-MB-435 (Melanoma) = assay: NCI-60 screen (SRB, 48 h); assay type: cell-based; conditions: for IC (TGI): MDA-MB-435, 48 h, read-out: TGI; for Growth % of the Most Sensitive Cell Lines: MDA-MB-435, 1 dose 10 µM
# OVCAR-4 (Ovarian cancer) = assay: NCI-60 screen (SRB, 48 h); assay type: cell-based; conditions: Homo sapiens; for IC (TGI): OVCAR-4, 48 h; for GI50: read-out: GI50
# SF-539 (CNS cancer) = assay: NCI-60 screen (SRB, 48 h); conditions: Homo sapiens; for GI50: SF-539; for IC (TGI): SF-539, 48 h, read-out: TGI
# [1] = test system: NCI/ADR-RES (Ovarian cancer); assay: NCI-60 screen (SRB, 48 h); conditions: Homo sapiens
# UACC-257 (Melanoma) = assay: NCI-60 screen (SRB, 48 h); conditions: Homo sapiens; for GI50: UACC-257; for IC (TGI): UACC-257, 48 h, read-out: TGI
# KM12 (Colon cancer) = assay: NCI-60 screen (SRB, 48 h); conditions: Homo sapiens; for GI50: KM12; for IC (TGI): KM12, 48 h, read-out: TGI
# HS 578T (Breast cancer) = assay: NCI-60 screen (SRB, 48 h); conditions: Homo sapiens
# HL-60(TB) (Leukemia) = assay: NCI-60 screen (SRB, 48 h); assay type: cell-based; conditions: Homo sapiens; for IC (TGI): 48 h
# [2] = test system: NCI-H522 (NSC lung cancer); assay: NCI-60 screen (SRB, 48 h); conditions: Homo sapiens; for GI50: NCI-H522; for IC (TGI): NCI-H522, 48 h, read-out: TGI
# MALME-3M (Melanoma) = assay: NCI-60 screen (SRB, 48 h); conditions: Homo sapiens
# HT29 (Colon cancer) = assay: NCI-60 screen (SRB, 48 h); conditions: Homo sapiens; for GI50: HT-29
# OVCAR-8 (Ovarian cancer) = assay: NCI-60 screen (SRB, 48 h); conditions: Homo sapiens; for GI50: OVCAR-8
# T-47D (Breast cancer) = assay: NCI-60 screen (SRB, 48 h); conditions: Homo sapiens, T47D; for IC (TGI): 48 h, read-out: TGI
# SK-MEL-28 (Melanoma) = assay: NCI-60 screen (SRB, 48 h); conditions: Homo sapiens; for GI50: SK-MEL-28; for IC (TGI): SK-MEL-28, 48 h, read-out: TGI
# CNS cancer subpanel = assay: NCI-60 screen, subpanel; conditions: Homo sapiens; for IC (TGI): 48 h, read-out: TGI MG_MID; for GI50: read-out: GI50 MG_MID
# SF-268 (CNS cancer) = assay: NCI-60 screen (SRB, 48 h); conditions: Homo sapiens; for GI50: SF-268
# RPMI-8226 (Leukemia) = assay: NCI-60 screen (SRB, 48 h); conditions: Homo sapiens, RPMI-8226
# SK-MEL-5 (Melanoma) = assay: NCI-60 screen (SRB, 48 h); conditions: Homo sapiens; for GI50: SK-MEL-5; for IC (TGI): SK-MEL-5, 48 h, read-out: TGI
# 786-0 (Renal cancer) = assay: NCI-60 screen (SRB, 48 h); conditions: for GI50: 786-0; for IC (TGI): 786-0, 48 h, read-out: TGI
# K-562 (Leukemia) = assay: NCI-60 screen (SRB, 48 h); conditions: Homo sapiens
structure (smiles),measurement,setting,value
C[C@H]1[C@H](C)CC[C@]2(C(=O)Nc3ccc4ncccc4c3)CC[C@]3(C)C(=CC[C@@H]4[C@@]5(C)CCCNC(C)(C)[C@@H]5CC[C@]43C)[C@H]12 [Compound 14],IC (TGI),Prostate cancer subpanel,3.28 µM
same,GI50,Prostate cancer subpanel,1.76 µM
same,GI50,EKVX (NSC lung cancer),1.66 µM
same,GI50,"MDA-MB-435 (Melanoma); Homo sapiens, MDA-MB-435",1.58 µM
same,IC (TGI),MDA-MB-435 (Melanoma); Homo sapiens,3 µM
same,Growth % of the Most Sensitive Cell Lines,MDA-MB-435 (Melanoma),−91.82%
same,IC (TGI),OVCAR-4 (Ovarian cancer),3.25 µM
same,GI50,OVCAR-4 (Ovarian cancer); OVCAR-4,1.66 µM
same,GI50,SF-539 (CNS cancer),1.61 µM
same,IC (TGI),SF-539 (CNS cancer),3.01 µM
same,GI50,[1],1.91 µM
same,GI50,UACC-257 (Melanoma),1.87 µM
same,IC (TGI),UACC-257 (Melanoma),3.54 µM
same,GI50,KM12 (Colon cancer),1.89 µM
same,IC (TGI),KM12 (Colon cancer),3.63 µM
same,GI50,HS 578T (Breast cancer),1.96 µM
same,GI50,HL-60(TB) (Leukemia),1.64 µM
same,IC (TGI),HL-60(TB) (Leukemia),3.63 µM
same,GI50,[2],1.75 µM
same,IC (TGI),[2],3.33 µM
same,GI50,MALME-3M (Melanoma),1.66 µM
same,GI50,HT29 (Colon cancer),1.59 µM
same,GI50,OVCAR-8 (Ovarian cancer),1.86 µM
same,GI50,T-47D (Breast cancer),1.67 µM
same,IC (TGI),T-47D (Breast cancer),3.64 µM
same,GI50,SK-MEL-28 (Melanoma),1.66 µM
same,IC (TGI),SK-MEL-28 (Melanoma),3.11 µM
same,IC (TGI),CNS cancer subpanel,3.17 µM
same,GI50,CNS cancer subpanel,1.67 µM
same,GI50,SF-268 (CNS cancer),1.73 µM
same,GI50,RPMI-8226 (Leukemia),1.6 µM
same,GI50,SK-MEL-5 (Melanoma),1.85 µM
same,IC (TGI),SK-MEL-5 (Melanoma),3.32 µM
same,CC50,"SK-MEL-5 (Melanoma); SK-MEL-5, read-out: LC50",5.94 µM
same,GI50,786-0 (Renal cancer); Homo sapiens,1.85 µM
same,IC (TGI),786-0 (Renal cancer); Homo sapiens,3.48 µM
C=C(C)[C@@H]1CC[C@]2(C)[C@H](C=CC3=C4C[C@@](C)(CO)CC[C@]4(C)CC[C@]32C)[C@@]1(C)CCCN [Compound 20],IC (TGI),Prostate cancer subpanel,3.22 µM
same,GI50,Prostate cancer subpanel,1.71 µM
same,GI50,EKVX (NSC lung cancer),1.6 µM
same,IC (TGI),"EKVX (NSC lung cancer); 48 h, read-out: TGI",3.1 µM
same,CC50,EKVX (NSC lung cancer); read-out: LC50,6.01 µM
same,GI50,"MDA-MB-435 (Melanoma); Homo sapiens, MDA-MB-435",1.78 µM
same,IC (TGI),MDA-MB-435 (Melanoma); Homo sapiens,3.2 µM
same,CC50,"MDA-MB-435 (Melanoma); Homo sapiens, MDA-MB-435, read-out: LC50 (the source's name)",5.76 µM
same,Growth % of the Most Sensitive Cell Lines,MDA-MB-435 (Melanoma),−96.77%
same,IC (TGI),OVCAR-4 (Ovarian cancer),3.09 µM
same,GI50,OVCAR-4 (Ovarian cancer); OVCAR-4,1.53 µM
same,CC50,"OVCAR-4 (Ovarian cancer); OVCAR-4, read-out: LC50 (the source's name)",6.23 µM
same,GI50,SF-539 (CNS cancer),1.73 µM
same,IC (TGI),SF-539 (CNS cancer),3.13 µM
same,CC50,"SF-539 (CNS cancer); SF-539, read-out: LC50",5.67 µM
same,GI50,[1],1.74 µM
same,IC (TGI),"[1]; 48 h, read-out: TGI",3.37 µM
same,CC50,[1]; read-out: LC50,6.54 µM
same,GI50,UACC-257 (Melanoma),1.82 µM
same,IC (TGI),UACC-257 (Melanoma),3.65 µM
same,CC50,"UACC-257 (Melanoma); UACC-257, read-out: LC50",7.14 µM
same,GI50,KM12 (Colon cancer),1.6 µM
same,IC (TGI),KM12 (Colon cancer),3.02 µM
same,CC50,"KM12 (Colon cancer); KM12, read-out: LC50",5.67 µM
same,GI50,HS 578T (Breast cancer),1.8 µM
same,IC (TGI),"HS 578T (Breast cancer); 48 h, read-out: TGI",4.07 µM
same,CC50,HS 578T (Breast cancer); read-out: LC50,9.2 µM
same,GI50,K-562 (Leukemia); K562,1.8 µM
same,IC (TGI),"K-562 (Leukemia); K562, 48 h, read-out: TGI",5.04 µM
same,CC50,"K-562 (Leukemia); K562, read-out: LC50",> 100 µM
same,GI50,HL-60(TB) (Leukemia),1.58 µM
same,IC (TGI),HL-60(TB) (Leukemia),3.62 µM
same,GI50,[2],1.83 µM
same,IC (TGI),[2],3.63 µM
same,GI50,MALME-3M (Melanoma),1.46 µM
same,IC (TGI),"MALME-3M (Melanoma); 48 h, read-out: TGI",2.91 µM
same,CC50,MALME-3M (Melanoma); read-out: LC50,5.82 µM
same,GI50,HT29 (Colon cancer),1.63 µM
same,IC (TGI),"HT29 (Colon cancer); HT-29, 48 h, read-out: TGI",3.28 µM
same,CC50,"HT29 (Colon cancer); HT-29, read-out: LC50",6.59 µM
same,GI50,OVCAR-8 (Ovarian cancer),2.13 µM
same,IC (TGI),"OVCAR-8 (Ovarian cancer); OVCAR-8, 48 h, read-out: TGI",4.61 µM
same,CC50,"OVCAR-8 (Ovarian cancer); OVCAR-8, read-out: LC50",10 µM
same,GI50,T-47D (Breast cancer),1.67 µM
same,IC (TGI),T-47D (Breast cancer),3.45 µM
same,GI50,SK-MEL-28 (Melanoma),1.82 µM
same,IC (TGI),SK-MEL-28 (Melanoma),3.25 µM
same,CC50,"SK-MEL-28 (Melanoma); SK-MEL-28, read-out: LC50",5.8 µM
same,IC (TGI),CNS cancer subpanel,3.18 µM
same,GI50,CNS cancer subpanel,1.67 µM
same,CC50,CNS cancer subpanel; read-out: LC50 MG_MID,6.04 µM
same,GI50,SF-268 (CNS cancer),1.61 µM
same,IC (TGI),"SF-268 (CNS cancer); SF-268, 48 h, read-out: TGI",3.25 µM
same,CC50,"SF-268 (CNS cancer); SF-268, read-out: LC50",6.56 µM
same,GI50,SK-MEL-5 (Melanoma),1.72 µM
same,IC (TGI),SK-MEL-5 (Melanoma),3.19 µM
same,Growth % of the Most Sensitive Cell Lines,"786-0 (Renal cancer); 786-0, 1 dose 10 µM",−97.28%
same,GI50,786-0 (Renal cancer); Homo sapiens,1.68 µM
same,IC (TGI),786-0 (Renal cancer); Homo sapiens,3.44 µM
same,CC50,"786-0 (Renal cancer); Homo sapiens, 786-0, read-out: LC50",7.04 µM
